Experimental findings from PubChem BioAssay (NCI) are described below.

Test systems include SNB-19 CNS; HCC-2998 colon; SF-268 CNS; T-47D breast; NCI-H226 lung; NCI-H460 lung; HCT-15 colon; M14 melanoma; MDA-N; DLD-1 colon.
Assay in all cases: inhibition of tumour cell growth, NCI panel, 48 h

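How tested: cells in 96-well plates exposed to compound for 48 hours at five concentrations. At the GI50, growth is halved. TGI: total growth inhibition.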

As for `COc1ccc2[nH]c(O)c(/C=c3/ccc4c(c3)N=C(c3ccc(F)cc3)N=4)c2c1`, the GI50 was 9.47 µM in the assay on SNB-19 CNS; > 100 µM in the assay on HCC-2998 colon; 3.76 µM in the assay with SF-268 CNS; 2.01 µM in the assay on T-47D breast; 2.5 µM in the assay on NCI-H226 lung; 3.35 µM in the assay with NCI-H460 lung. For the same compound, the results for the GI50 in the assay on HCT-15 colon and in the assay with M14 melanoma were 5.83 µM and 2.66 µM, respectively. In addition, the TGI is > 100 µM with SNB-19 CNS; > 100 µM with HCC-2998 colon; 22.7 µM with SF-268 CNS; 4.99 µM in the assay on T-47D breast; 6.33 µM with NCI-H226 lung; 12.3 µM in the assay with NCI-H460 lung. Besides, the results for the TGI in the assay on HCT-15 colon and in the assay with M14 melanoma were > 100 µM and 11.1 µM, respectively.

Consider `Nc1cc2nc3ccccc3oc-2cc1=O`, for which the GI50 in the assay on SNB-19 CNS was 5.44 µM; in the assay with HCC-2998 colon, 4.34 µM; in the assay with SF-268 CNS, 4.85 µM; in the assay with T-47D breast, 14.9 µM; in the assay with NCI-H226 lung it was 2.57 µM; in the assay on NCI-H460 lung, 1.77 µM. In addition, the results for the GI50 in the assay with HCT-15 colon and with M14 melanoma were 0.641 µM and 1.61 µM, respectively. The TGI in the assay with SNB-19 CNS is 16 µM; with HCC-2998 colon, 17.4 µM; in the assay on SF-268 CNS, > 57.2 µM; with T-47D breast, > 100 µM; in the assay on NCI-H226 lung, 9.2 µM; in the assay with NCI-H460 lung, 4.36 µM. Besides, the TGI in the assay on M14 melanoma is 3.01 µM.

Take `C[C@]12CC[C@@H]3c4ccc(O)cc4CC[C@H]3[C@@H]1CC[C@@H]2NS(=O)(=O)c1ccc2ccccc2c1`: the GI50 with SNB-19 CNS is 4.17 µM; with HCC-2998 colon it was 4.24 µM; in the assay on SF-268 CNS, 3.68 µM; in the assay on T-47D breast, 3.9 µM; with NCI-H226 lung, 2.98 µM; in the assay on NCI-H460 lung, 2.21 µM. Besides, the GI50 is 2.89 µM in the assay with HCT-15 colon and 3.2 µM in the assay with M14 melanoma. Further, the TGI in the assay with SNB-19 CNS was > 100 µM; in the assay on HCC-2998 colon it was 15.5 µM; in the assay on SF-268 CNS it was 18.4 µM; in the assay on T-47D breast, 16.3 µM; in the assay on NCI-H226 lung it was 11.5 µM; in the assay with NCI-H460 lung it was 4.97 µM. Besides, the TGI with HCT-15 colon and in the assay with M14 melanoma was 10.5 µM each time.

Turning to `NC(CO)C(=O)NCC(=O)O` (stereo unspecified), the TGI with SNB-19 CNS, in the assay with HCC-2998 colon, in the assay on SF-268 CNS, in the assay with T-47D breast, in the assay on NCI-H226 lung and in the assay with NCI-H460 lung was > 100 µM each time. Also, the TGI in the assay on MDA-N, in the assay with HCT-15 colon and in the assay on M14 melanoma was > 100 µM throughout.

For the compound `COc1cc(C2C3=C(COC3=O)Nc3cc4c(cc32)OCO4)cc2c1OCO2` (stereo unspecified), the GI50 in the assay with SNB-19 CNS was 0.143 µM; in the assay on HCC-2998 colon it was 0.109 µM; with SF-268 CNS, 0.0834 µM; with T-47D breast, > 100 µM; in the assay with NCI-H226 lung, 0.0827 µM; in the assay on NCI-H460 lung, 0.0734 µM. The GI50 with HCT-15 colon was 0.109 µM; in the assay on M14 melanoma, 0.03 µM. In addition, the TGI in the assay with SNB-19 CNS is > 100 µM; with SF-268 CNS it was > 100 µM; in the assay with T-47D breast it was > 100 µM; in the assay with NCI-H460 lung, > 35 µM; in the assay on HCT-15 colon, > 100 µM; with M14 melanoma it was 0.0878 µM.

As for `COc1cc2c(cc1O)C(c1cc(O)c(O)c(OC)c1)C(O)(C(=O)O)C(CO)C2O` (stereo unspecified), the TGI with SNB-19 CNS, in the assay on HCC-2998 colon, in the assay with SF-268 CNS, in the assay on T-47D breast, in the assay on NCI-H226 lung and in the assay with NCI-H460 lung was > 100 µM each time. The TGI is 30.9 µM in the assay on MDA-N, > 100 µM in the assay on HCT-15 colon and > 100 µM in the assay on M14 melanoma.

For `CC(=O)c1ccc2c(c1)N(CCCN(C)C)c1ccccc1S2`, the GI50 is 18.6 µM with SNB-19 CNS; 14.4 µM in the assay on HCC-2998 colon; 13.5 µM in the assay on SF-268 CNS; 16.6 µM with T-47D breast; 21.3 µM in the assay on NCI-H226 lung; 18 µM with NCI-H460 lung. Besides, the GI50 in the assay with HCT-15 colon is 16 µM; in the assay with M14 melanoma, 14.9 µM. For the same compound, the TGI was 43.2 µM in the assay on SNB-19 CNS; 27.6 µM in the assay on HCC-2998 colon; 29.6 µM with SF-268 CNS; 39.6 µM in the assay with T-47D breast; 55.1 µM with NCI-H226 lung; 33.8 µM in the assay on NCI-H460 lung. Besides, the TGI in the assay with HCT-15 colon is 31.2 µM; in the assay on M14 melanoma it was 30 µM.

With `Cc1cn2c(/C=N/N=C(N)N)c(-c3ccsc3)nc2s1`, the GI50 in the assay with SNB-19 CNS is 7.31 µM; with HCC-2998 colon it was 2.34 µM; with SF-268 CNS, 14.6 µM; in the assay on T-47D breast, 2.7 µM; with NCI-H226 lung, 15.5 µM; with NCI-H460 lung, 5.29 µM. The results for the GI50 with HCT-15 colon and in the assay on M14 melanoma were 7.81 µM and 11.5 µM, respectively. The TGI with SNB-19 CNS was 23.7 µM; in the assay on HCC-2998 colon, 5.33 µM; in the assay with SF-268 CNS it was 44.3 µM; in the assay on T-47D breast, 7.86 µM; in the assay with NCI-H226 lung, 31.7 µM; in the assay with NCI-H460 lung, > 100 µM. Also, the TGI in the assay with HCT-15 colon is 21.6 µM; in the assay on M14 melanoma, 37.3 µM.

`Cc1cc2c(=O)cc(-c3ccc(F)cc3)oc2c(C(=O)O)c1C`: the TGI in the assay on SNB-19 CNS, in the assay with SF-268 CNS, with DLD-1 colon, in the assay on NCI-H226 lung, in the assay with NCI-H460 lung and with HCT-15 colon was > 100 µM throughout. Further, the TGI in the assay on M14 melanoma is > 100 µM.

As for `O=S(=O)(NCCO)c1cc[c]([Sb](=[O])([OH])[OH])cc1`, the GI50 in the assay on SNB-19 CNS, in the assay with HCC-2998 colon, in the assay on SF-268 CNS, with T-47D breast, with NCI-H226 lung and in the assay on NCI-H460 lung was > 100 µM each time. The GI50 with MDA-N, in the assay with HCT-15 colon and with M14 melanoma was > 100 µM throughout. The TGI in the assay with SNB-19 CNS, in the assay on HCC-2998 colon, in the assay with SF-268 CNS, in the assay with T-47D breast, with NCI-H226 lung and with NCI-H460 lung was > 100 µM in each case. The TGI with MDA-N, in the assay on HCT-15 colon and in the assay with M14 melanoma was > 100 µM throughout.
